Tests used:
[1] = molecular target: alkaline phosphatase (AP) (Escherichia coli, UniProt P00634, R188S); assay: steady-state hydrolysis kinetics; assay type: biochemical
[2] = molecular target: NPP (Xanthomonas axonopodis nucleotide phosphodiesterase/pyrophosphatase) (Xanthomonas citri, UniProt A0A0U5FM15); assay: inhibition of MepNPP hydrolysis, absorbance of 4-nitrophenolate at […] nm; assay type: biochemical

Sequence of alkaline phosphatase (AP) (P00634 23-471 R188S): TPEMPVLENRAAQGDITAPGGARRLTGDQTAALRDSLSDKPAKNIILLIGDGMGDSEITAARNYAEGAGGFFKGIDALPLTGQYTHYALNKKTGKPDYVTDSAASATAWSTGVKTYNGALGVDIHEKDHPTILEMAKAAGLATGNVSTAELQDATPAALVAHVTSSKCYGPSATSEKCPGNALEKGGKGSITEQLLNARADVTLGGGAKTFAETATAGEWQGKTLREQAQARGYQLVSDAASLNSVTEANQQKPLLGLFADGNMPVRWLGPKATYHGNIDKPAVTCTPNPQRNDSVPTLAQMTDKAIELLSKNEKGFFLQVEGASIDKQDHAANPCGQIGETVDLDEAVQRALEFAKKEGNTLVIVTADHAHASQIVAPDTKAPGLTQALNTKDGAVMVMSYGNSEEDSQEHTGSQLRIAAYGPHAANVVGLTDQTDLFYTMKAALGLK

Row | Structure (SMILES) | kcat/KM [1] | Ki [2]
1 | COP(O)(=S)Oc1ccc([N+](=O)[O-])cc1 (racemic) [MepNPPS, methyl p-nitrophenyl phosphorothioate] | 0.0011 M⁻¹ s⁻¹ | –
2 | Nc1ncnc2c1ncn2[C@@H]1O[C@H](COP(=O)(O)O)[C@@H](O)[C@H]1O [AMP, adenosine monophosphate] | – | 318 ± 24 µM

From paper PMC2662379 (Biochemistry, 2008)
